Patent US20240398830A1, “COMPOSITIONS AND USES THEREOF FOR TREATMENT OF NEUROLOGICAL DISORDERS” (UNIVERSITY OF SOUTH FLORIDA, priority 2021, published 2024)

Tests used:
Type in all cases: cell-based
FKBP51 [1] = test: Immunoblot analysis of dexamethasone induced FKBP51 levels in H4 human neuroglioma cell line; details: 10 μM compound, dexamethasone containing media, 24 h, immunoblot (FIG. 1)
Protocol: FIGS. 1A-1B show qPCR (FIG. 1A) and immunoblot analysis (FIG. 1B) of FKBP51 levels in cultures of H4 human neuroglioma cell line treated with methyl acetate vehicle (MeOAc) or ethanol vehicle (ETOH) or 10 μM 15-deoxy-12,14-prostaglandin J2 (J2) or 10 μM 9-nitro oleic acid (9N), or 10 μM 10-nitro oleic acid (ION) in control (dimethyl sulfoxide; DMSO) or dexamethasone (Dex) containing media for 6 h and 24 h. Cultures incubated with treatments for 6 h were used for RNA analysis whereas cultures incubated with treatments for 24 h were used for protein analysis. Bars represent mean±SEM; n=3 independent experiments.

FKBP51 [2] = test: Immunoblot analysis of dexamethasone induced FKBP51 levels in HT-22 mouse hippocampal neuronal cell line; details: 20 μM compound, 500 nM dexamethasone, immunoblot (FIG. 2)
[3] = system: glucocorticoid receptor response element (GRE); test: GRE reporter luciferase assay in dexamethasone treated HeLa cells; details: dexamethasone treated HeLa cells transfected with empty vector or FKBP51 vector (FIG. 3)

`CCCCCCCC/C=C(\CCCCCCCC(=O)O)[N+](=O)[O-]` [9-nitro oleic acid, 9-nitro-9E-octadecenoic acid] was tested, and the “dexamethasone induced FKBP51 protein levels” value (FKBP51 [1]) was “inhibit dexamethasone induced FKBP51 protein levels”, the “dexamethasone induced FKBP51 protein levels” value (FKBP51 [2]) was “inhibit dexamethasone induced FKBP51 protein levels” and the “glucocorticoid receptor response (GRE reporter luciferase)” value (from here on “glucocorticoid receptor response”) [3] was “alter glucocorticoid receptor response”.
`CCCCCCCC/C(=C\CCCCCCCC(=O)O)[N+](=O)[O-]` [10-nitro oleic acid, 10-nitro-9E-octadecenoic acid] was tested, and the “dexamethasone induced FKBP51 protein levels” value (FKBP51 [1]) was “inhibit dexamethasone induced FKBP51 protein levels”, the “dexamethasone induced FKBP51 protein levels” value (FKBP51 [2]) was “inhibit dexamethasone induced FKBP51 protein levels” and the “glucocorticoid receptor response” value [3] was “alter glucocorticoid receptor response”.
In the case of `CCCCC/C=C/C=C1/C(=O)C=C[C@@H]1C/C=C\CCCC(=O)O` [15-deoxy-12,14-prostaglandin J2, 15-deoxy-Δ12,14-prostaglandin J2], the “dexamethasone induced FKBP51 protein levels” value (FKBP51 [1]) is reported as “inhibit dexamethasone induced FKBP51 protein levels”, the “dexamethasone induced FKBP51 protein levels” value (FKBP51 [2]) is reported as “inhibit dexamethasone induced FKBP51 protein levels” and the “glucocorticoid receptor response” value [3] is reported as “alter glucocorticoid receptor response”.
